Tested on: GLP-1
Experiment: In vivo GLP-1 secretion after glucose challenge
Parameters: species or system C57 mice
Conditions: for Plasma GLP-1 levels: single oral 100 mg/kg, overnight-fasted C57 mice, 2 g/kg glucose one hour later, blood 15 min after challenge
Procedure: (§1) Measurement of GLP-1 secretion: To measure plasma GLP-1 levels, 100 mg/kg of compounds 20p and 20q were administered orally to overnight-fasted C57 mice (n = 5 animals/group). One hour later, all mice were challenged with 2 g/kg glucose, and blood samples were collected after 15 min of glucose challenge test. Plasma GLP-1 levels were measured using the GLP-1 ELISA Kit Wako, High Sensitive (FUJIFILM Wako Pure Chemical Corporation, Osaka city, Osaka, Japan)[56].
Amersham Place Little Chalfont Buckinghamshire, HP7 9NA UK), and cDNA was synthesized using ReverTra Ace qPCR RT Master Mix (Toyobo Co., Ltd., Osaka City, Osaka, Japan). Real-time PCR was performed using a CFX96 Touch Real-Time PCR Analysis System (CFX Manager, Bio-Rad, 1000 Alfred Nobel Drive, Hercules, CA, USA), and the mRNA expression levels of SHP and CYP7A1, the target gene s of FXR, were measured using the intercalator […]
In vivo assay protocol (GLP-1)
as §1, with “overnight -fasted” for “overnight-fasted”, “(n=5” for “(n = 5”, “Japan)[56].” left out
In vivo assay protocol (OGTT test)
To measure blood glucose levels, 100 mg/kg of test compounds 20p and 20q or vehicle were administered orally to overnight-fasted C57 mice (n=5 mice/group, control; n=10). One hour later, all mice were challenged with 2 g/kg glucose, and blood samples were collected after 15 min of glucose loading. The blood glucose levels were measured using LabAssay Glucose (FUJIFILM Wako Pure Chemical Corporation, Osaka City, Osaka, Japan).5
In vivo in-house animal guidelines
Study protocols were designed and refined by taking reduction of animal use into consideration. […]

| SMILES | Serum GLP-1 (single dose, wild-type mice) | Plasma GLP-1 levels |
| --- | --- | --- |
| COC(=O)/C=C/c1cccc(N(Cc2ccc(-c3ccc(N(C)C)cc3)cc2)C(=O)C2CCCCC2)c1 [Compound 7, Fexaramine, reference compound] | did not increase serum GLP-1 | – |
| COc1cc(Cl)cc(N(CC23CCC(c4ccc(OC)c(C#N)c4)(CC2)CC3)C(=O)c2ccncc2C)c1 [Compound 20p] | – | significantly increased the plasma levels of GLP-1 |
| COc1ccc(C23CCC(CN(C(=O)c4ccncc4C)c4cc(Cl)cc(Cl)c4)(CC2)CC3)cc1C#N [Compound 20q] | – | significantly increased the plasma levels of GLP-1 |

Reference: publication PMC8080777, “Discovery, optimization, and evaluation of non-bile acid FXR/TGR5 dual agonists” (Scientific Reports, 2021)
